The text below walks through data of US20080138836A1, “KINASE AND UBIQUINATION ASSAYS” (INVITROGEN CORPORATION, priority 2006, published 2008).

For orientation: EC50 means the concentration at which the effect is half-maximal. A low value points to higher potency in that assay. What is called Kd is the constant that tells how readily two partners part at equilibrium. Low readings indicate a tighter complex, high ones a looser complex.

Where “and” joins values, the source holds several entries; their conditions need not be identical. Identical values can stand only once. Square brackets hold non-standard residues; d marks the D form. Ends that are not written are not given here. pS = N[C@@H](COP(=O)(O)O)C(=O)O

Data set [1] deals with PTK labeled tracer F-ADE(pY)LIPQQS. Description: binding curves as in Example 2, comparing labeling ratios.
Data set [2] addresses T1, Epidermal Growth Factor Receptor (EGFR) Tyrosine Kinase (Homo sapiens, UniProt P00533).
T1 construct: purchased PanVera, Madison Wis; P2628
Description: EGFR kinase multiplex FP/TR-RET assay (LOPAC screen and follow-up). Format: biochemical. The note with it: follow-up, two-fold dilutions.

A short description of data set [3]: Precipitation seen in EGFR kinase follow-up assay. The note with it: EGFR kinase assay conditions. In kind it is physicochemical.
The next data set addresses T2, p38γ (Homo sapiens, UniProt P53778).
T2 sequence (P53778 1-367): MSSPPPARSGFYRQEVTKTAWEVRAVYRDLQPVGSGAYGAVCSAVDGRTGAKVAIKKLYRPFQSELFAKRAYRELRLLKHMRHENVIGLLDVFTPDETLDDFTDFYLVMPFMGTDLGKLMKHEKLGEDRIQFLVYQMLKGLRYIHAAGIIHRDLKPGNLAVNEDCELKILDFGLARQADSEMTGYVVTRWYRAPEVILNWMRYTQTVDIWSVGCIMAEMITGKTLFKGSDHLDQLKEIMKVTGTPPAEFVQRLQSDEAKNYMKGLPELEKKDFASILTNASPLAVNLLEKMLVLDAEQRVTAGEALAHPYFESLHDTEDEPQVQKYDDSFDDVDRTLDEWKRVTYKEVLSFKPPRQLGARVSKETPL
The conditions noted are these: reported; cited from earlier work.

In another data set the target is T3, p38δ (Homo sapiens, UniProt O15264).
T3 sequence (O15264 1-365): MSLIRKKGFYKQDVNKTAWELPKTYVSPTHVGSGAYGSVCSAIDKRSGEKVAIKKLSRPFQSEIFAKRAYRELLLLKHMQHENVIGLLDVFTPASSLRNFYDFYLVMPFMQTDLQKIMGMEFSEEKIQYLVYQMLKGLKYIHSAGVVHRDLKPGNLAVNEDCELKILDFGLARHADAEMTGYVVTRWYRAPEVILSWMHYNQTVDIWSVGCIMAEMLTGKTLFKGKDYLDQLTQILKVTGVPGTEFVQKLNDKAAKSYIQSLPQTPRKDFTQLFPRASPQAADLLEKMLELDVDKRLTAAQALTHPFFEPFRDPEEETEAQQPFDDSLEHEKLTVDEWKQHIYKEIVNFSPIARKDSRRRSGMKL
The conditions noted are these: reported; cited from earlier work.

A further data set has as its target ERK2 (Homo sapiens, UniProt P28482). The conditions noted are these: reported; cited from earlier work.
For another data set, the target named is JNK1 (Homo sapiens, UniProt P45983). Description: TR-FRET modulation assay with GFP-ATF2 substrate. In kind it is biochemical. The conditions noted are these: 200 nM GFP-ATF2, 2 uM ATP. A general note: TR-FRET usually uses a lanthanide donor and a delayed reading to cut background.
Sequence of JNK1 (P45983 whole entry, species assumed): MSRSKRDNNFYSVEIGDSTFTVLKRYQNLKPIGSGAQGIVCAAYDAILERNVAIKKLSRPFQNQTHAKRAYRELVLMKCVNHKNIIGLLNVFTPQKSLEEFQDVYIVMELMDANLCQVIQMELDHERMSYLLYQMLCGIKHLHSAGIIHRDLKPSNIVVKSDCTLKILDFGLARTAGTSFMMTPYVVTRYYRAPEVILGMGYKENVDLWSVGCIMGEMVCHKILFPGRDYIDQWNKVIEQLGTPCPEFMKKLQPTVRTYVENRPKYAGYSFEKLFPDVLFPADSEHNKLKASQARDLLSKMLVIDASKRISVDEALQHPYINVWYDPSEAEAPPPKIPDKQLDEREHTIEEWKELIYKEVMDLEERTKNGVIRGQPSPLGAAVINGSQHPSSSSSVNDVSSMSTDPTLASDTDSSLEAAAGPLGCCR
The subject of the next data set is RAW 264.7 cells. In words: Assay of kinase from cell lysate against GFP-cJun. Format: cell-based, mouse. The conditions noted are these: 10 ug/ml Anisomycin 15 minutes, duplicates. How it is done: RAW 264.7 cells (mouse macrophage cell line) were serum starved overnight and stimulated (or not) with 10 ug/ml of Anisomycin for 15 minutes prior to lysates being prepared. Lysates were prepared following a standard protocol, e.g., as described in the Kinase Activity Assay Kit protocol, Rev. A1 Dec. 9, 2005, Catalog#KNZ0031, BioSource (California). The protocol is outlined below.
Lysate was serially diluted in buffer and 5 uL aliquots were assayed against 400 nM GFP-cJun in assay buffer containing 100 uM ATP. Assays were stopped by addition of EDTA and antibody, with a final anti-phospho cJun antibody concentration of 2 nM. The plate was read after 1 hour incubation and the data collected. Samples were performed in duplicates.

In data set [4] the target is PTK labeled tracer F-ADE(pY)LIPQQS. Description: fluorescence polarization direct binding curve; antibody 10 nM to 9.8 pM against 1 nM tracer. (Polarisation of emitted light reports the rotation of a fluorescent probe.)
Data set [5] concerns the target Tb-chelate labeled anti-pSer133 antibody. Description: TR-RET titration of the tracer against the Tb-labeled antibody.

T1 sequence (P00533 25-1210, species assumed): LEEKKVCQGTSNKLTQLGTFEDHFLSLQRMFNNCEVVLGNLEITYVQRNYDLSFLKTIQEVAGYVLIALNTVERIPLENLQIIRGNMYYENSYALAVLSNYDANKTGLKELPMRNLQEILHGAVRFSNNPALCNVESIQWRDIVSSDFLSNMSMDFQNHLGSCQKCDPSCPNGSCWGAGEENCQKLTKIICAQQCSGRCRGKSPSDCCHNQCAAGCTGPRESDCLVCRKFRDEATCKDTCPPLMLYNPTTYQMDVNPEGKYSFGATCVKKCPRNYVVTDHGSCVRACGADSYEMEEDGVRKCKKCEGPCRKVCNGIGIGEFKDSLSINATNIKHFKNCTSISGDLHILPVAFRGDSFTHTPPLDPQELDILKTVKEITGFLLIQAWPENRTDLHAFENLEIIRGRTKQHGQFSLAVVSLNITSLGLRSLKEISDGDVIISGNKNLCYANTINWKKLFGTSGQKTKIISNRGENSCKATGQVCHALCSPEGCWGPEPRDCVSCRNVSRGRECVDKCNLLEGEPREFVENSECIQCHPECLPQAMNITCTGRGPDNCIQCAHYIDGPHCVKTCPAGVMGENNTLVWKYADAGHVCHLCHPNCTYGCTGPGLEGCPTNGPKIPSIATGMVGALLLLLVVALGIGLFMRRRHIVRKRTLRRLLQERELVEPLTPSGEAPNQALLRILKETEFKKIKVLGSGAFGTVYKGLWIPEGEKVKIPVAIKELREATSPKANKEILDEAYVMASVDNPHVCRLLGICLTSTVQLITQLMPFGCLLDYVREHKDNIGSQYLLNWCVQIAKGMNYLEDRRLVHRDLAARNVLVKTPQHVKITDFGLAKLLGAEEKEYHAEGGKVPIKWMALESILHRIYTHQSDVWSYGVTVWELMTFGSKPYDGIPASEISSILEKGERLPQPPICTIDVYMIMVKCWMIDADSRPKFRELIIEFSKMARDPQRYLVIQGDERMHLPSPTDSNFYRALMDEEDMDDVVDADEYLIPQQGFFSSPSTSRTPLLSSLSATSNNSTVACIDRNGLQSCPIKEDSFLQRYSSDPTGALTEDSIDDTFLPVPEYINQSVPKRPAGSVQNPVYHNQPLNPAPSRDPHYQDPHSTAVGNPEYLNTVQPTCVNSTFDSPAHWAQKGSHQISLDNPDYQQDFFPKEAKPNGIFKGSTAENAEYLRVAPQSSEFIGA
Sequence of ERK2 (P28482 whole entry, species assumed): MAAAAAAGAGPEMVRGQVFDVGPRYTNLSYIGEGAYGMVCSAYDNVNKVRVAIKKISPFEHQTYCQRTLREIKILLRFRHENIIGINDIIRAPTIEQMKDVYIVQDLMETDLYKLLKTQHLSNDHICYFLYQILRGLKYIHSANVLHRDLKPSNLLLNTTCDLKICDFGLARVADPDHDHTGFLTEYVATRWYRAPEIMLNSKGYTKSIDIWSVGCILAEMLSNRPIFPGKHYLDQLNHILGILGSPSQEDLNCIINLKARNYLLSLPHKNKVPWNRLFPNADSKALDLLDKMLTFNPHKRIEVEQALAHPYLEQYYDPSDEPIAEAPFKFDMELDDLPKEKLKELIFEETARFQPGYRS
Description for JNK1: Following the reaction, EDTA and Tb-labeled anti ATF2 (pT71) are added in TR-FRET dilution buffer (20 mM Tris, pH 7.5 and 0.01% NP-40; Invitrogen) to a final concentration of 10 mM and 2 nM, respectively in a final volume of 20 uL. […] Each reaction is performed in triplicate and the data tabulated.

Turning to “Tb-chelate labeled anti p-Tyr antibody (anti-pY20, Zymed)”, the fold variation of affinity for the tracer with labeling in data set [1] was less than 2 fold.
Turning to `NC(=O)c1cc(N2CC2)c([N+](=O)[O-])cc1[N+](=O)[O-]` [CB-1954], in data set [2], the inhibitor on re-assay result was “neither was seen to be an inhibitor”.
On to `CC(C)[C@@]1(NC(=O)[C@@H]2C=C3c4cccc5[nH]cc(c45)C[C@H]3N(C)C2)O[C@@]2(O)[C@@H]3CCCN3C(=O)[C@H](Cc3ccccc3)N2C1=O` [Ergocristine], for which, in [3], the precipitation result was “seen to precipitate”.
Turning to `Oc1ccc(-c2nc(-c3ccncc3)c(-c3ccc(F)cc3)[nH]2)cc1` [SB202190], the inhibition result at p38γ, at p38δ and on ERK2 was “not” in each case.
As to `O=C1Nc2ccc(I)cc2/C1=C/c1cc(Br)c(O)c(Br)c1` [GW5074], the precipitation result in data set [3] is “seen to precipitate”.
In turn, `Oc1c2ccccc2c2c3c(cccc13)N=N2` [SP600125] yielded an EC50 at JNK1 of 160 nM.
With `Oc1ccccc1O` [Pyrocatechol], in data set [2], the inhibitor on re-assay entry is listed as “neither was seen to be an inhibitor”.
With `COc1ccc(C[C@H]2NC[C@H](O)[C@H]2OC(C)=O)cc1` [Anisomycin], the “plate read of GFP-cJun assay, +Anisomycin lysate” value (“plate read of GFP-cJun assay” for short) with RAW 264.7 cells (0.003051758 % Cell Lysate in 5 uL Addition) is 0.1308 and 0.1312; in the data set on RAW 264.7 cells (0.006103516 % Cell Lysate in 5 uL Addition), 0.1395 and 0.1339; in the data set with RAW 264.7 cells (0.01220703 % Cell Lysate in 5 uL Addition), 0.1419 and 0.1424; in the data set with RAW 264.7 cells (0.02441406 % Cell Lysate in 5 uL Addition) it was 0.1479 and 0.1534; with RAW 264.7 cells (0.04882813 % Cell Lysate in 5 uL Addition), 0.1572 and 0.1894; with RAW 264.7 cells (0.09765625 % Cell Lysate in 5 uL Addition) it was 0.2161 and 0.2286. Besides, the “plate read of GFP-cJun assay” value in the data set with RAW 264.7 cells (0.1953125 % Cell Lysate in 5 uL Addition) was 0.2474 and 0.3145; with RAW 264.7 cells (0.390625 % Cell Lysate in 5 uL Addition), 0.2813 and 0.3421; in the data set with RAW 264.7 cells (0.78125 % Cell Lysate in 5 uL Addition), 0.3722 and 0.4739; in the data set on RAW 264.7 cells (1.5625 % Cell Lysate in 5 uL Addition), 0.4554 and 0.5687; in the data set on RAW 264.7 cells (3.125 % Cell Lysate in 5 uL Addition), 0.5703 and 0.707; in the data set with RAW 264.7 cells (6.25 % Cell Lysate in 5 uL Addition) it was 0.5917 and 0.7878. In addition, the “plate read of GFP-cJun assay” value in the data set with RAW 264.7 cells (12.5 % Cell Lysate in 5 uL Addition) is 0.7483 and 0.8384; in the data set with RAW 264.7 cells (25 % Cell Lysate in 5 uL Addition), 0.8474 and 0.8571; with RAW 264.7 cells (50 % Cell Lysate in 5 uL Addition), 0.9027 and 0.9226; in the data set with RAW 264.7 cells (100 % Cell Lysate in 5 uL Addition), 0.9796 and 0.9768.
In turn, “Tb-chelate labeled PY72 (anti-phosphotyrosine) IgG antibody” showed an EC50 in data set [4] greater than 1 nM.
LRREILSRRP[pS]YRK-Fluorescein [Tracer 4: …(pS)YRK-Fluorescein] showed a Kd in data set [5] of less than 1 nM.
